From patent EP0645451A1, “Heparin binding site structural analogues of fibroblast growth factors” (AMERICAN CYANAMID COMPANY, priority 1993, dated 1995)

Columns and labels:
Test in all cases: Fluorescence quenching titration, thermodynamic dissociation constant (KD)
FGF-1 (acidic FGF) = FGF-1 (acidic FGF) (Homo sapiens, UniProt P05230); settings: tryptophan fluorescence quenching, 10 mM Tris-HCl, pH 7.4, 2 mM dithiothreitol, fitted with n binding sites per ligand, read-out: KD BCDS
Protocol: (§1) FGF-2 contains a single tryptophan residue at position 123. […] Therefore, the fluorescence properties of FGF-2 and FGF-2 mutants in the presence and absence of heparin and a heparin mimic, β-cyclodextran tetradecasulfate (BCDS) are evaluated in this example.
(§2) Fluorescence titration measurements are conducted in a Perkin-Elmer LS-5 fluorospectrometer using excitation and emission wavelengths of 290 nm and 350 nm, respectively. Two milliliters of FGF solution in 10 mM Tris-HCl, pH 7.4, containing 2 mM of dithiothreitol are placed in a cuvette. […] Concentrations of FGF-2 and gln^128,138FGF-2 are 370 nM and 280 nM, respectively. […] An equivalent tryptophan residue, Trp122, exists in acidic FGF (FGF-1), for which similar fluorescence quenching is obtained.
The thermodynamic dissociation constant (KD) is obtained from plots of fluorescence intensity versus ligand concentration. The fluorescence intensity data are fitted by non-linear regression by using equation 1 below, where FO is observed fluorescence intensity, FI is initial intensity, Δ F is the difference between final and the initial fluorescence intensities, Ct is the total FGF protein concentration, KD is the thermodynamic dissociation constant, and Lt is the total heparin concentration. […] However, in the fluorescence titration experiments the titration curves shown in Figure 1 cannot be fitted directly using equation 1. […]

[1] = molecular target: T1, human FGF-2 mutant gln^128,138FGF-2 (lysine-128 and lysine-138 replaced by glutamine) (Homo sapiens, UniProt P09038, A136E/K261Q/K271Q/S138E); assay type: binding; settings: tryptophan fluorescence quenching, 10 mM Tris-HCl, pH 7.4, 2 mM dithiothreitol, read-out: KD BCDS
T1 construct: a synthetic gene encoding the 155 amino acid form of human FGF-2; made in house; host or cells: E. coli BL21 plys S
T1 sequence (P09038 134-288 A136E/S138E/K261Q/K271Q): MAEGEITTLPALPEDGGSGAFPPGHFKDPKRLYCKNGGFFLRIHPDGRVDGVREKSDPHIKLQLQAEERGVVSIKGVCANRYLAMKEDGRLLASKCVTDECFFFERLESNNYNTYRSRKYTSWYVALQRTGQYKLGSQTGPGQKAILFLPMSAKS
Protocol: as §1, §2
(§3) The thermodynamic dissociation constant (KD) is obtained from plots of fluorescence intensity versus ligand concentration. The fluorescence intensity data are fitted by non-linear regression by using equation 1 below, where FO is observed fluorescence intensity, FI is initial intensity, Δ F is the difference between final and the initial fluorescence intensities, Ct is the total FGF protein concentration, KD is the thermodynamic dissociation constant, and Lt is the total heparin concentration. It is assumed in equation 1 that the stoichiometry of FGF and heparin in the complex is 1:1. A graphic software Kaleidagraph is used for handling data. [formula] However, in the fluorescence titration experiments the titration curves shown in Figure 1 cannot be fitted directly using equation 1. […] Since the heparin preparation used here is composed of an average of 20 sulfated monosaccharide units per chain, it is likely that more than one FGF molecule is bound per oligosaccharide chain. […] Moreover, it is reasonable to assume that, in the absence of any data to indicate otherwise, the binding sites on heparin are independent and the binding affinities are similar. […] Under this assumption, the effective concentration of the ligand needs to be adjusted by the multiplication of the actual concentrations by the number of possible binding sites. If n is the average number of FGF molecules bound per oligosaccharide, then equation 1 can be modified to give [formula] in which the effective concentration of the ligand is increased by n times.
(§4) Equation 2 is used to fit the data shown in Figure 1 and the values of the two variables, KD and n, are determined by non-linear regression of at least three titration curves for each molecule. An average of four (n = 4) FGF-2 molecules interacting with heparin is obtained. Four binding sites on each heparin molecule are assumed for mutant gln^128,138FGF-2. Since the molecular weight of heparin used in the experiments is about 5000, which has an average of 20 monosaccharide units, about 4 to 6 monosaccharide units may interact with each FGF molecule. Two to four FGF molecules can bind to one BCDS (which has a calculated molecular weight of 2226). This estimate is in good agreement with that reported by Mach, et al. (Biochemistry 32: 5480-5489 (1993)) of a stoichiometry of 1:4-6 determined by a variety of different approaches including light scattering and analytical ultracentrifugation analyses.
(§5) Table I presents the thermodynamic dissociation constants obtained from fluorescence quenching experiments for the wild-type FGF and the mutants using heparin or BCDS.

[2] = molecular target: T2, human FGF-2 mutant gln^129,134FGF-2 (arginine-129 and lysine-134 replaced by glutamine) (Homo sapiens, UniProt P09038, A136E/K267Q/R262Q/S138E); assay type: binding; settings: tryptophan fluorescence quenching, 10 mM Tris-HCl, pH 7.4, 2 mM dithiothreitol, read-out: KD BCDS
T2 construct: a synthetic gene encoding the 155 amino acid form of human FGF-2; made in house; host or cells: E. coli BL21 plys S
T2 sequence (P09038 134-288 A136E/S138E/R262Q/K267Q): as the sequence (P09038 134-288 A136E/S138E/K261Q/K271Q) above, with Q128K, R129Q, K134Q, Q138K counted along it
Protocol: as §1, §2, §3, §4, §5

[3] = molecular target: T3, human FGF-2 mutant gln¹²⁸FGF-2 (lysine-128 replaced by glutamine) (Homo sapiens, UniProt P09038, A136E/K261Q/S138E); assay type: binding; settings: tryptophan fluorescence quenching, 10 mM Tris-HCl, pH 7.4, 2 mM dithiothreitol, read-out: KD BCDS
T3 construct: a synthetic gene encoding the 155 amino acid form of human FGF-2; made in house; host or cells: E. coli BL21 plys S
T3 sequence (P09038 134-288 A136E/S138E/K261Q): as the sequence (P09038 134-288 A136E/S138E/K261Q/K271Q) above, with Q138K counted along it
Protocol: as §1, §2, §3, §4, §5

[4] = molecular target: T4, human FGF-2 mutant gln¹²⁹FGF-2 (arginine-129 replaced by glutamine) (Homo sapiens, UniProt P09038, A136E/R262Q/S138E); assay type: binding; settings: tryptophan fluorescence quenching, 10 mM Tris-HCl, pH 7.4, 2 mM dithiothreitol, read-out: KD BCDS
T4 construct: a synthetic gene encoding the 155 amino acid form of human FGF-2; made in house; host or cells: E. coli BL21 plys S
T4 sequence (P09038 134-288 A136E/S138E/R262Q): as the sequence (P09038 134-288 A136E/S138E/K261Q/K271Q) above, with Q128K, R129Q, Q138K counted along it
Protocol: as §1, §2, §3, §4, §5

[5] = molecular target: T5, human FGF-2 mutant gln¹³⁴FGF-2 (lysine-134 replaced by glutamine) (Homo sapiens, UniProt P09038, A136E/K267Q/S138E); assay type: binding; settings: tryptophan fluorescence quenching, 10 mM Tris-HCl, pH 7.4, 2 mM dithiothreitol, read-out: KD BCDS
T5 construct: a synthetic gene encoding the 155 amino acid form of human FGF-2; made in house; host or cells: E. coli BL21 plys S
T5 sequence (P09038 134-288 A136E/S138E/K267Q): as the sequence (P09038 134-288 A136E/S138E/K261Q/K271Q) above, with Q128K, K134Q, Q138K counted along it
Protocol: as §1, §2, §3, §4, §5

[6] = molecular target: T6, human FGF-2 mutant gln¹³⁸FGF-2 (lysine-138 replaced by glutamine) (Homo sapiens, UniProt P09038, A136E/K271Q/S138E); assay type: binding; settings: tryptophan fluorescence quenching, 10 mM Tris-HCl, pH 7.4, 2 mM dithiothreitol, read-out: KD BCDS
T6 construct: a synthetic gene encoding the 155 amino acid form of human FGF-2; made in house; host or cells: E. coli BL21 plys S
T6 sequence (P09038 134-288 A136E/S138E/K271Q): as the sequence (P09038 134-288 A136E/S138E/K261Q/K271Q) above, with Q128K counted along it
Protocol: as §1, §2, §3, §4, §5

[7] = molecular target: T7, human FGF-2, wild-type (recombinant glu^3,5FGF-2) (Homo sapiens, UniProt P09038, A136E/S138E); assay type: binding; settings: wild-type FGF-2; tryptophan fluorescence quenching, 10 mM Tris-HCl, pH 7.4, 2 mM dithiothreitol; read-out: KD BCDS
T7 construct: a synthetic gene encoding the 155 amino acid form of human FGF-2; made in house; host or cells: E. coli BL21 plys S (stated for the mutants; inferred for the wild type)
T7 sequence (P09038 134-288 A136E/S138E): as the sequence (P09038 134-288 A136E/S138E/K261Q/K271Q) above, with Q128K, Q138K counted along it
Protocol: as §1, §2, §3, §4, §5

Sequence of FGF-1 (acidic FGF) (P05230 whole entry, species assumed): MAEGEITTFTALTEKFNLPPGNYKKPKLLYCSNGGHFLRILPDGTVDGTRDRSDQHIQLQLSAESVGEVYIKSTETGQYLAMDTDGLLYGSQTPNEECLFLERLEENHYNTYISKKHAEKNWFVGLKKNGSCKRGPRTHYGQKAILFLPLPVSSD

β-cyclodextran tetradecasulfate [BCDS]
Kd (FGF-1 (acidic FGF)): 4 ± 2 nM
Kd [1]: 2700 ± 600 nM
Kd [2]: 130 ± 27 nM
Kd [3]: 178 ± 44 nM
Kd [4]: 3 ± 1 nM
Kd [5]: 12 ± 0.1 nM
Kd [6]: 228 ± 23 nM
Kd [7]: 14 ± 7 nM
